Experiment: Adverse events during switch from oral to i.v. selexipag and back in subjects with stable PAH (Phase 3 study)
Type: in vivo, human
Conditions: for AE incidence: Blindness unilateral / AE incidence: Chromaturia / AE incidence: Cough / AE incidence: Dyspnoea / AE incidence: Flushing / AE incidence: Headache / AE incidence: Hypokalaemia / AE incidence: Nasopharyngitis / AE incidence: Nausea / AE incidence: Oedema peripheral / AE incidence: Rhegmatogenous retinal detachment / AE incidence: Right ventricular failure / AE incidence: Upper respiratory tract infection / Subjects with at least one AE: Period 3 + follow-up (oral selexipag, up to 37 days)
Experimental: This was a prospective, multicenter, open-label, single-sequence, cross-over, Phase 3 study. Based on the dose of selexipag received at study entry, subjects were allocated to one of the following groups, selexipag 200-1000 μg b.i.d. or selexipag 1200-1600 μg b.i.d. See, FIG. 1. The study comprised the following periods:
(ii) Treatment and observation period: The treatment and observation period included the following consecutive periods: • Period 1 included oral selexipag pre-treatment period for 1 day, in-hospital. This period started with intake of the morning dose of oral selexipag on Day 1 at Visit 2 and ended the following day, before initiation of the first infusion of i.v. selexipag. • Period 2 included i.v. selexipag treatment period for 36 hours [3 infusions], in-hospital. This period started in the morning of Day 2 at Visit 2 with the start of the first infusion of i.v. selexipag and ended in the evening of Day 3 at Visit 2 before the evening administration of oral selexipag. Administration of oral selexipag was interrupted during the i.v. selexipag treatment period. • Period 3 included oral selexipag post-treatment period for 7 to 11 day. This period started in the evening of Day 3 at Visit 2 with the administration of oral selexipag and ended 7-11 days later, at Visit 3.
The endpoints analyzed for Period 1, Period 2, and Period 3 and follow-up period combined included discontinuations due to prostacyclin-associated AEs, adverse events (AEs) and serious adverse events (SAEs), prostacyclin-associated AEs, AEs related to injection site reactions, and PAH-related AEs.
The endpoints analyzed for (i) Period 1, Period 2, and Period 3 and follow-up period combined (ii) Period 1 and Period 2 combined, and (iii) Period 2 and Period 3 combined included discontinuations due to prostacyclin-associated AEs, discontinuations due to any AEs, AEs and SAEs, prostacyclin-associated AEs, PAH-related AEs, change from baseline in vital signs (systolic blood pressure [SBP], diastolic blood pressure [DBP], and pulse rate) and body weight, ECG abnormalities, marked laboratory abnormalities, and change from baseline in WHO FC.
The statistical analysis was mainly descriptive, without formal hypothesis testing. Exact Pearson-Clopper CIs for the incidence of AEs were computed.

[1] = Period 2 (intravenous selexipag treatment), high dose cohort (1200-1600 μg), N = 12
[2] = Period 2 (intravenous selexipag treatment), low dose cohort (200-1000 μg), N = 8
[3] = Period 2 (intravenous selexipag treatment), total, N = 20
[4] = Period 2 (iv selexipag), total, N = 20
[5] = Period 3 (oral selexipag), high dose cohort (1200-1600 μg), N = 12
[6] = Period 3 (oral selexipag), low dose cohort (200-1000 μg), N = 8
[7] = Period 3 (oral selexipag), total, N = 20
[8] = Period 3 + Follow-up (oral selexipag), total, N = 20
[9] = high dose cohort (1200-1600 μg), N = 12
[10] = low dose cohort (200-1000 μg), N = 8

## CC(C)N(CCCCOCC(=O)NS(C)(=O)=O)c1cnc(-c2ccccc2)c(-c2ccccc2)n1 [selexipag, 2-{4-[(5,6-diphenylpyrazin-2-yl)(propan-2-yl)amino]butoxy}-N-(methanesulfonyl)acetamide]
[1]
  Prostacyclin-associated AE incidence: Vomiting: 1 n (%)
  Subjects with at least one prostacyclin-associated AE: 6 n (%)
[2]
  Prostacyclin-associated AE incidence: Diarrhoea: 0 n (%)
  Prostacyclin-associated AE incidence: Flushing: 0 n (%)
  Prostacyclin-associated AE incidence: Headache: 1 (12.5) n (%)
  Prostacyclin-associated AE incidence: Myalgia: 0 n (%)
  Prostacyclin-associated AE incidence: Nausea: 0 n (%)
  Prostacyclin-associated AE incidence: Pain in jaw: 0 n (%)
  Prostacyclin-associated AE incidence: Tension headache: 0 n (%)
  Prostacyclin-associated AE incidence: Vomiting: 0 n (%)
  Subjects with at least one prostacyclin-associated AE: 1 (12.5) n (%)
[3]
  Prostacyclin-associated AE incidence: Diarrhoea: 1 n (%)
  Prostacyclin-associated AE incidence: Flushing: 1 n (%)
  Prostacyclin-associated AE incidence: Headache: 4 n (%)
  Prostacyclin-associated AE incidence: Myalgia: 1 n (%)
  Prostacyclin-associated AE incidence: Nausea: 1 n (%)
  Prostacyclin-associated AE incidence: Pain in jaw: 1 n (%)
  Prostacyclin-associated AE incidence: Tension headache: 1 n (%)
  Prostacyclin-associated AE incidence: Vomiting: 1 n (%)
[4]
  Deaths: 0 n (%)
  Discontinuations due to prostacyclin-associated AEs: 0 n (%)
  Number of subjects with at least one Injection site reaction-AE (ISR-AE): 2 n (%)
  Number of subjects with at least one Prostacyclin-associated AEs: 7 n (%)
  Number of subjects with at least one Serious adverse events (SAEs): 0 n (%)
  SAE incidence: Blindness unilateral: 0 n (%)
  SAE incidence: Rhegmatogenous retinal detachment: 0 n (%)
  SAE incidence: Right ventricular failure: 0 n (%)
Period 3
  PAH-related AE: peripheral edema: 2 subjects
  PAH-related AE: right ventricular failure in the context of respiratory tract infection: 1 subject
  subjects with PAH-related AEs: 3 subjects
Period 3 (oral selexipag) + Follow-up, total, N = 20
  SAE incidence: Right ventricular failure: 1 n (%)
[5]
  Prostacyclin-associated AE incidence: Flushing: 1 n (%)
  Prostacyclin-associated AE incidence: Headache: 1 n (%)
  Prostacyclin-associated AE incidence: Nausea: 1 n (%)
[6]
  Prostacyclin-associated AE incidence: Flushing: 0 n (%)
  Prostacyclin-associated AE incidence: Headache: 0 n (%)
  Prostacyclin-associated AE incidence: Nausea: 0 n (%)
[7]
  Prostacyclin-associated AE incidence: Flushing: 1 n (%)
  Prostacyclin-associated AE incidence: Headache: 1 n (%)
  Prostacyclin-associated AE incidence: Nausea: 1 n (%)
[8]
  Deaths: 0 n (%)
  Discontinuations due to prostacyclin-associated AEs: 0 n (%)
  Number of subjects with at least one Injection site reaction-AE (ISR-AE): 0 n (%)
  Number of subjects with at least one Prostacyclin-associated AEs: 1 n (%)
  Number of subjects with at least one Serious adverse events (SAEs): 2 n (%)
[9]
  AE incidence: Blindness unilateral: 1 n (%)
  AE incidence: Chromaturia: 1 n (%)
  AE incidence: Cough: 1 n (%)
  AE incidence: Dyspnoea: 1 n (%)
  AE incidence: Flushing: 1 n (%)
  AE incidence: Headache: 1 n (%)
  AE incidence: Hypokalaemia: 1 n (%)
  AE incidence: Nasopharyngitis: 0 n (%)
  AE incidence: Nausea: 1 n (%)
  AE incidence: Oedema peripheral: 1 n (%)
  AE incidence: Rhegmatogenous retinal detachment: 1 n (%)
  AE incidence: Right ventricular failure: 1 n (%)
  AE incidence: Upper respiratory tract infection: 1 n (%)
  Subjects with at least one AE: 6 n (%)
[10]
  AE incidence: Blindness unilateral: 0 n (%)
  AE incidence: Chromaturia: 0 n (%)
  AE incidence: Cough: 0 n (%)
  AE incidence: Dyspnoea: 0 n (%)
  AE incidence: Flushing: 0 n (%)
  AE incidence: Headache: 0 n (%)
  AE incidence: Hypokalaemia: 0 n (%)
  AE incidence: Nasopharyngitis: 1 (12.5) n (%)
  AE incidence: Nausea: 0 n (%)
  AE incidence: Oedema peripheral: 1 (12.5) n (%)
  AE incidence: Rhegmatogenous retinal detachment: 0 n (%)
  AE incidence: Right ventricular failure: 0 n (%)
  AE incidence: Upper respiratory tract infection: 0 n (%)
  Subjects with at least one AE: 2 (25.0) n (%)
total, N = 20
  AE incidence: Blindness unilateral: 1 n (%)
  AE incidence: Chromaturia: 1 n (%)
  AE incidence: Cough: 1 n (%)
  AE incidence: Dyspnoea: 1 n (%)
  AE incidence: Flushing: 1 n (%)
  AE incidence: Headache: 1 n (%)
  AE incidence: Hypokalaemia: 1 n (%)
  AE incidence: Nasopharyngitis: 1 n (%)
  AE incidence: Nausea: 1 n (%)
  AE incidence: Oedema peripheral: 2 n (%)
  AE incidence: Rhegmatogenous retinal detachment: 1 n (%)
  AE incidence: Right ventricular failure: 1 n (%)
  AE incidence: Upper respiratory tract infection: 1 n (%)
  Subjects with at least one AE: 8 n (%)
Periods 1 and 2
  PAH-related AEs: No PAH-related AEs
conclusion
  AE profile during treatment with i.v. selexipag: consistent with the known safety profile of selexipag
  tolerability of the switch from oral selexipag (Period 1) to i.v. selexipag (Period 2) and back to oral selexipag (Period 3): well tolerated
Whole study
  Deaths: No subject died
  discontinued study treatment due to an AE: No subject
  prostacyclin-associated AEs reported as severe, serious, or resulting in discontinuation of study treatment: None

From patent publication US20220323437A1, “METHODS FOR TREATING PULMONARY ARTERIAL HYPERTENSION” (ACTELION PHARMACEUTICALS LTD, priority 2019, published 2022)
